Reference: patent US6503881B2 (priority 1996, dated 2003)
Read-outs that look alike come from different tables or passages of the source.

Experiments:
E. faecium = type: cell-based; settings: for MBI 26 MIC, +Teicoplanin: in combination with teicoplanin; for MIC in combination: Teicoplanin + MBI 26
[1] = system: microorganisms with acquired resistance
A. calcoaceticus = test: Overcoming inherent resistance, MIC alone and in combination (agarose dilution); type: cell-based; settings: A. calcoaceticus AC001

Substance: KWKSFIKKLTSAAKKVVTTAKPLISS [MBI 26]
- MBI 26 MIC, +Teicoplanin (E. faecium; E. faecium 97009 VanB): 1 µg/mL
- MIC Alone (E. faecium; E. faecium 97010 VanB, agent alone): 64 µg/mL
- MBI 26 MIC, +Teicoplanin (E. faecium; E. faecium 97010 VanB): 4 µg/mL
- MIC Alone (E. faecium; E. faecium 97011 VanB, agent alone): 64 µg/mL
- MBI 26 MIC, +Teicoplanin (E. faecium; E. faecium 97011 VanB): 4 µg/mL
- MIC Alone (E. faecium; E. faecium 97012 VanB, agent alone): 64 µg/mL
- MBI 26 MIC, +Teicoplanin (E. faecium; E. faecium 97012 VanB): 4 µg/mL
- MIC Alone (E. faecium; E. faecium 97013 VanB, agent alone): 64 µg/mL
- MBI 26 MIC, +Teicoplanin (E. faecium; E. faecium 97013 VanB): 8 µg/mL
- MIC Alone (E. faecium; E. faecium 97014 VanB, agent alone): 32 µg/mL
- MBI 26 MIC, +Teicoplanin (E. faecium; E. faecium 97014 VanB): 4 µg/mL
- MIC Alone (E. faecium; E. faecium 97015 VanB, agent alone): 64 µg/mL
- MBI 26 MIC, +Teicoplanin (E. faecium; E. faecium 97015 VanB): 4 µg/mL
- MIC Alone (E. faecium; E. faecium 97016 VanB, agent alone): 64 µg/mL
- MBI 26 MIC, +Teicoplanin (E. faecium; E. faecium 97016 VanB): 4 µg/mL
- MIC Alone (E. faecium; E. faecium 97017 VanA): 64 µg/mL
- MIC in combination (E. faecium; E. faecium 97017 VanA): 4 µg/mL
- MIC Alone (E. faecium; E. faecium 97018 VanA): 64 µg/mL
- MIC in combination (E. faecium; E. faecium 97018 VanA): 8 µg/mL
- MIC Alone (E. faecium; E. faecium 97019 VanA): 64 µg/mL
- MIC in combination (E. faecium; E. faecium 97019 VanA): 16 µg/mL
- MIC Alone (E. faecium; E. faecium 97020 VanA): 64 µg/mL
- MIC in combination (E. faecium; E. faecium 97020 VanA): 16 µg/mL
- MIC Alone (E. faecium; E. faecium 97021 VanA): 64 µg/mL
- MIC in combination (E. faecium; E. faecium 97021 VanA): 32 µg/mL
- MIC Alone (E. faecium; E. faecium 97022 VanA): 64 µg/mL
- MIC in combination (E. faecium; E. faecium 97022 VanA): 4 µg/mL
- MIC Alone (E. faecium; E. faecium 97023 VanA): 64 µg/mL
- MIC in combination (E. faecium; E. faecium 97023 VanA): 4 µg/mL
- MIC Alone (E. faecium; E. faecium 97024 VanA): 64 µg/mL
- MIC in combination (E. faecium; E. faecium 97024 VanA): 8 µg/mL
- MIC Alone (E. faecium; E. faecium 97025 VanA): 16 µg/mL
- MIC in combination (E. faecium; E. faecium 97025 VanA): 4 µg/mL
- MIC Alone (E. faecium; E. faecium 97026 VanA): 64 µg/mL
- MIC in combination (E. faecium; E. faecium 97026 VanA): 16 µg/mL
- MIC Alone (E. faecium; E. faecium 97027 VanA): 64 µg/mL
- MIC in combination (E. faecium; E. faecium 97027 VanA): 8 µg/mL
- MIC Alone (E. faecium; E. faecium 97028 VanA): 8 µg/mL
- MIC in combination (E. faecium; E. faecium 97028 VanA): 8 µg/mL
- MIC Alone (E. faecium; E. faecium 97029 VanA): 64 µg/mL
- MIC in combination (E. faecium; E. faecium 97029 VanA): 8 µg/mL
- MIC Alone (E. faecium; E. faecium 97030 VanA): 64 µg/mL
- MIC in combination (E. faecium; E. faecium 97030 VanA): 32 µg/mL
- MIC Alone (E. faecium; E. faecium 97031 VanA): 64 µg/mL
- MIC in combination (E. faecium; E. faecium 97031 VanA): 32 µg/mL
- MIC Alone (E. faecium; E. faecium 97032 VanA): 64 µg/mL
- MIC in combination (E. faecium; E. faecium 97032 VanA): 8 µg/mL
- MIC Alone (E. faecium; E. faecium 97033 VanA): 64 µg/mL
- MIC in combination (E. faecium; E. faecium 97033 VanA): 8 µg/mL
- MIC Alone (E. faecium; E. faecium 97034 VanA): 64 µg/mL
- MIC in combination (E. faecium; E. faecium 97034 VanA): 8 µg/mL
- MIC Alone (E. faecium; E. faecium 97035 VanA): 64 µg/mL
- MIC in combination (E. faecium; E. faecium 97035 VanA): 0.5 µg/mL
- MIC Alone (E. faecium; E. faecium 97036 VanA): 8 µg/mL
- MIC in combination (E. faecium; E. faecium 97036 VanA): 4 µg/mL
- Peptide MIC ([1]; S. aureus SA7609, pair Erythromycin / MBI 26): 1 µg/mL
- Peptide MIC ([1]; S. aureus SA7795, pair Erythromycin / MBI 26): 8 µg/mL
- Peptide MIC ([1]; S. aureus SA7796, pair Erythromycin / MBI 26): 2 µg/mL
- Peptide MIC ([1]; S. aureus SA7818, pair Methicillin / MBI 26): 2 µg/mL
- Peptide MIC ([1]; S. aureus SA7835, pair Erythromycin / MBI 26): 2 µg/mL
- Peptide MIC ([1]; S. aureus SA7835, pair Methicillin / MBI 26): 16 µg/mL
- Peptide MIC ([1]; S. epidermidis SE8403, pair Erythromycin / MBI 26): 2 µg/mL
- Peptide MIC ([1]; S. epidermidis SE8410, pair Erythromycin / MBI 26): 1 µg/mL
- Peptide MIC ([1]; S. epidermidis SE8411, pair Erythromycin / MBI 26): 1 µg/mL
- Peptide MIC ([1]; S. epidermidis SE8497, pair Clindamycin / MBI 26): 2 µg/mL
- Peptide MIC ([1]; S. epidermidis SE8497, pair Erythromycin / MBI 26): 1 µg/mL
- Peptide MIC ([1]; S. epidermidis SE8503, pair Erythromycin / MBI 26): 1 µg/mL
- Peptide MIC ([1]; S. epidermidis SE8565, pair Erythromycin / MBI 26): 1 µg/mL
- Peptide MIC ([1]; S. haemolyticus SH8472, pair Ampicillin / MBI 26): 16 µg/mL
- Peptide MIC ([1]; S. haemolyticus SH8563, pair Methicillin / MBI 26): 2 µg/mL
- Peptide MIC ([1]; S. haemolyticus SH8575, pair Ampicillin / MBI 26): 8 µg/mL
- Peptide MIC ([1]; S. haemolyticus SH8578, pair Erythromycin / MBI 26): 0.1 µg/mL
- Peptide MIC ([1]; S. haemolyticus SH8597, pair Clindamycin / MBI 26): 1 µg/mL
- MIC Alone (A. calcoaceticus; agent alone): 16 µg/mL
- MBI 26 MIC, +Erythro. (A. calcoaceticus; in combination with erythromycin): 8 µg/mL
